pIC50, pKd: −log10 of the molar value. Where two headings read alike, the source gives them in different places. *1 amine or outer side, *2 acyl side, *3 side chain or, on linkers, in order; H or OH if unused. Where a SMILES comes first, the peptide text is derived from it. Bridges are numbered along the chain shown (N, C = ends). [ ]: non-standard residue; d: D form. The star is where a group is joined. hPhe(3-Cl-4-CF3) = N[C@@H](CCc1ccc(C(F)(F)F)c(Cl)c1)C(=O)O; X5 = C=CCN([C@@H](Cc1ccc(C(F)(F)F)cc1)C(=O)[*:2])[*:1]; NPrPhe(4-CF3) = CCCN[C@@H](Cc1ccc(C(F)(F)F)cc1)C(=O)O; NMeGly(cPent) = CN[C@H](C(=O)O)C1CCCC1; NMeD = CN[C@@H](CC(=O)O)C(=O)O; X1 = O=C(CN(CC(F)F)[*:1])[*:2]; NMeL = CN[C@@H](CC(C)C)C(=O)O; Morpholide = C1CN(*)CCO1; Ac5c = NC1(C(=O)O)CCCC1; Sar = CNCC(=O)O
Tests used:
[1] = test system: human lung cancer strain NCI-H441;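 also: cell proliferation inhibition after four days measured by CellTiter-Glo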
[2] = target: GDP-bound HRAS wild-type protein (Homo sapiens, UniProt P01112); experiment: Binding to HRAS by surface plasmon resonance (SPR), Single Cycle Kinetics
[3] = target: GDP-bound KRAS wild-type protein (Homo sapiens, UniProt P01116); experiment: Binding to KRAS by surface plasmon resonance (SPR), Single Cycle Kinetics; settings: GDP-bound KRAS wild-type protein, read-out: KRAS KD
[4] = target: GDP-bound NRAS wild-type protein (Homo sapiens, UniProt P01111); experiment: Binding to NRAS by surface plasmon resonance (SPR), Single Cycle Kinetics
[5] = read-out: NCI-H441 cell proliferation inhibitory activity, 50% proliferation inhibitory concentration (IC50 value), NCI-H441, four days, CellTiter-Glo
[6] = SPR, GDP-bound HRAS wild-type protein vs GDP-bound KRAS wild-type protein
[7] = SPR, GDP-bound NRAS wild-type protein vs GDP-bound KRAS wild-type protein
[8] = SPR, GDP-bound HRAS wild-type protein vs GDP-bound KRAS wild-type protein, KD ratio class
[9] = SPR, Single Cycle Kinetics, 1:1 binding model
[10] = SPR, GDP-bound NRAS wild-type protein vs GDP-bound KRAS wild-type protein, KD ratio class
[11] = SPR Single Cycle Kinetics, 1:1 binding model

GDP-bound NRAS wild-type protein, sequence (P01111 whole entry): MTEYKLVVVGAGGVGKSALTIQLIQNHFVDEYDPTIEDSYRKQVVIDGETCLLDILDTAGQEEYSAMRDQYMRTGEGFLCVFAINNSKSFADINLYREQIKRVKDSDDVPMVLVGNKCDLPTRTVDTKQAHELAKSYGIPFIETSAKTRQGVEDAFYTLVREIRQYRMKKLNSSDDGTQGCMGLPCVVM
GDP-bound KRAS wild-type protein, sequence (P01116 whole entry): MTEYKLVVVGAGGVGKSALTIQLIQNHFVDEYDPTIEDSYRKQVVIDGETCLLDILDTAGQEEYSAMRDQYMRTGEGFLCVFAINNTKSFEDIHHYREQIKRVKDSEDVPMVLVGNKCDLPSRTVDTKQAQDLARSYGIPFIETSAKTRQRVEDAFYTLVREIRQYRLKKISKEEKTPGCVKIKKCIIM
GDP-bound HRAS wild-type protein, sequence (P01112 whole entry): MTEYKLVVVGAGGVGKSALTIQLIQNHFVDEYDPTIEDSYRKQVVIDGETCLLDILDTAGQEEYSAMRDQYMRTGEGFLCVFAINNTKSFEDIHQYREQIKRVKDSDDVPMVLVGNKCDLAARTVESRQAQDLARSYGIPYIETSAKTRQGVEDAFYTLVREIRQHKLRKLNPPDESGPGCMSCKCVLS

Row | pKd ([3]; SPR, Single Cycle Kinetics) | pIC50 [1] | SMILES | HRAS/KRAS (ratio of KD value for HRAS to KD value for KRAS) [2, 6] | NRAS/KRAS (ratio of KD value for NRAS to KD value for KRAS) [4, 7] | also measured
1 | 9.96 | – | CC[C@H](C)[C@@H]1NC(=O)[C@@H]2CCCc3ccc(cc3)C[C@@H](C(=O)N(C)CC(=O)N[C@@H](CCc3ccc(C(F)(F)F)c(OC)c3)C(=O)N3C[C@H](OC4CCC4)C[C@H]3C(=O)NC3(CC(C)(C)C3)C(=O)N(C)[C@@H](C3CCCC3)C(=O)N(C)[C@H](C(=O)N(C)CC)CC(=O)N2C)N2CC/C=C\C[C@@H](C2=O)N(C)C(=O)CN(C)C1=O [PP3085] | B (a compound having 3 or more and less than 10 is denoted as B) | A (a compound having 10 or more and less than 20 is denoted as A) | pIC50 [1, 5]: 8.20; ratio of the KD value with respect to GDP-bound HRAS wild-type protein to the KD value with respect to KRAS ([2]; SPR): B (a compound having 3 or more and less than 10 is denoted as B); ratio of the KD value with respect to GDP-bound NRAS wild-type protein to the KD value with respect to KRAS ([4]; SPR): A (a compound having 10 or more and less than 20 is denoted as A)
2 | – | 7.77 | CC[C@H](C)[C@@H]1NC(=O)[C@H](COC)N(C)C(=O)C[C@@H](C(=O)N(C)C)N(C)C(=O)[C@H](C2CCCCC2)N(C)C(=O)C2(CC(C)(C)C2)NC(=O)[C@@H]2C[C@@H](OC3CCC3)CN2C(=O)[C@H](CCc2cc(F)c(C(F)(F)F)c(F)c2)NC(=O)CN(C)C(=O)[C@H](Cc2ccc(C(F)(F)F)cc2)N2CC/C=C\C[C@@H](C2=O)N(C)C(=O)CN(C)C1=O [PP2655] | – | – | HRAS/KRAS (ratio of KD value with respect to GDP-bound HRAS wild-type protein to KD value with respect to KRAS) ([2]; SPR KD ratio HRAS/KRAS, class symbols): A (a compound having 10 or more and less than 20 is denoted as A); pKd [3, 11]: 10.00; NRAS/KRAS (ratio of KD value with respect to GDP-bound NRAS wild-type protein to KD value with respect to KRAS) ([4]; SPR KD ratio NRAS/KRAS, class symbols): AA (a compound having 20 or more is denoted as AA)
3 | 10.32 | – | CC[C@H](C)[C@@H]1NC(=O)[C@@H]2CCCCc3ccc(cc3)C[C@@H](C(=O)N(C)CC(=O)N[C@@H](CCc3ccc(C(F)(F)F)c(OC)c3)C(=O)N3C[C@H](OC(C)C)C[C@H]3C(=O)NC3(CC(C)(C)C3)C(=O)N(C)[C@@H](C3CCCC3)C(=O)N(C)[C@H](C(=O)N(C)CC)CC(=O)N2C)N2CC/C=C\C[C@@H](C2=O)N(C)C(=O)CN(C)C1=O [PP3078] | B (a compound having 3 or more and less than 10 is denoted as B) | A (a compound having 10 or more and less than 20 is denoted as A) | pIC50 [1, 5]: 8.64; ratio of the KD value with respect to GDP-bound HRAS wild-type protein to the KD value with respect to KRAS ([2]; SPR): B (a compound having 3 or more and less than 10 is denoted as B); ratio of the KD value with respect to GDP-bound NRAS wild-type protein to the KD value with respect to KRAS ([4]; SPR): A (a compound having 10 or more and less than 20 is denoted as A)
4 | – | 7.87 | CCO[C@@H]1C[C@H]2C(=O)NC3(CCC3)C(=O)N(C)[C@@H](C3CCCC3)C(=O)N(C)[C@H](C(=O)N(C)C)CC(=O)N(C)[C@@H](CC(C)C)C(=O)N[C@@H]([C@@H](C)CC)C(=O)N(C)CC(=O)N(C)[C@H]3C/C=C\CCN(C3=O)[C@@H](CC3CCC(F)(F)CC3)C(=O)N(C)CC(=O)N[C@@H](CCc3cc(F)c(C(F)(F)F)c(F)c3)C(=O)N2C1 [PP1453, (2S,8S,12R,14S,20S,23S,27S,30S,36S,38Z)-20-cyclopentyl-2-[(4,4-difluorocyclohexyl)methyl]-8-[2-[3,5-difluoro-4-(trifluoromethyl)phenyl]ethyl]-12-ethoxy-27-isobutyl-N,N,4,19,22,26,32,35-octamethyl-30-[(1S)-1-methylpropyl]-3,6,9,15,18,21,25,28,31,34,42-undecaoxo-spiro[1,4,7,10,16,19,22,26,29,32,35-undecazatricyclo[34.5.1.0^10,14]dotetracont-38-ene-17,1′-cyclobutane]-23-carboxamide] | – | – | HRAS/KRAS (ratio of KD value for HRAS to KD value for KRAS) [2, 8]: A (a compound having 10 or more and less than 20 is denoted as A); pKd [3, 9]: 9.92; NRAS/KRAS (ratio of KD value for NRAS to KD value for KRAS) [4, 10]: A (a compound having 10 or more and less than 20 is denoted as A)
5 | – | 6.67 | CCO[C@@H]1C[C@H]2C(=O)NC3(CCC3)C(=O)N(C)[C@@H](C3CCCC3)C(=O)N(C)[C@H](C(=O)N(C)C)CC(=O)N(C)[C@@H](CC3CC3)C(=O)N[C@@H]([C@@H](C)CC)C(=O)N(C)CC(=O)N(C)[C@H]3C/C=C\CCN(C3=O)[C@@H](Cc3ccc(F)cc3C)C(=O)N(C)CC(=O)N[C@@H](CCc3ccc(Cl)c(Cl)c3)C(=O)N2C1 [PP1476] | – | – | HRAS/KRAS (ratio of KD value for HRAS to KD value for KRAS) [2, 8]: B (a compound having 3 or more and less than 10 is denoted as B); pKd [3, 9]: 9.00; NRAS/KRAS (ratio of KD value for NRAS to KD value for KRAS) [4, 10]: A (a compound having 10 or more and less than 20 is denoted as A)
6 | 9.80 | 8.54 | CCC[C@H]1C(=O)N[C@@H]([C@@H](C)CC)C(=O)N(C2CC2)CC(=O)N(C)[C@H]2C/C=C\CCN(C2=O)[C@@H](Cc2ccc(C(F)(F)F)cc2)C(=O)N(C)CC(=O)N[C@@H](CCc2ccc(C(F)(F)F)c(OC)c2)C(=O)N2C[C@@H](C)C[C@H]2C(=O)N(C)C2(CCC2)C(=O)N(C)[C@@H](C2CCCC2)C(=O)N(C)[C@H](C(=O)N(C)C)CC(=O)N1C [PP2360] | B (a compound having 3 or more and less than 10 is denoted as B) | A (a compound having 10 or more and less than 20 is denoted as A) | –
7 | 9.64 | 7.94 | CCO[C@@H]1C[C@H]2C(=O)NC3(CC(C)(C)C3)C(=O)N(C)[C@@H](C3CCCC3)C(=O)N(C)[C@H](C(=O)N(CC)CC)CC(=O)N(C)[C@@H](COC)C(=O)N[C@@H]([C@@H](C)CC)C(=O)N(C)CC(=O)N(C)[C@H]3C/C=C\CCN(C3=O)[C@@H](Cc3ccc(C)cc3)C(=O)N(C)CC(=O)N[C@@H](CCc3ccc(C(F)(F)F)c(OC)c3)C(=O)N2C1 [PP2398] | A (a compound having 10 or more and less than 20 is denoted as A) | A (a compound having 10 or more and less than 20 is denoted as A) | –

Continued, compound first:

Row | SMILES | pKd ([3]; SPR, Single Cycle Kinetics) | pIC50 [1] | HRAS/KRAS (ratio of KD value for HRAS to KD value for KRAS) [2, 6] | NRAS/KRAS (ratio of KD value for NRAS to KD value for KRAS) [4, 7] | also measured
8 | CCO[C@@H]1C[C@H]2C(=O)NC3(CCCC3)C(=O)N(C)[C@@H](C(CC)CC)C(=O)N(C)[C@H](C(=O)N3CCCC3)CC(=O)N(C)[C@@H](COC)C(=O)N[C@@H]([C@@H](C)CC)C(=O)N(C)CC(=O)N(C)[C@H]3C/C=C\CCN(C3=O)[C@@H](CC3CCC(F)(F)CC3)C(=O)N(C)CC(=O)N[C@@H](CCc3cc(F)c(C(F)(F)F)c(F)c3)C(=O)N2C1 [PP1441] | – | 7.06 | – | – | HRAS/KRAS (ratio of KD value for HRAS to KD value for KRAS) [2, 8]: A (a compound having 10 or more and less than 20 is denoted as A); pKd [3, 9]: 9.15; NRAS/KRAS (ratio of KD value for NRAS to KD value for KRAS) [4, 10]: A (a compound having 10 or more and less than 20 is denoted as A)
9 | CCCO[C@H](C)[C@@H]1NC(=O)[C@H](COCC)N(C)C(=O)C[C@@H](C(=O)N(C)CC)N(C)C(=O)[C@H](C2CCCC2)N(C)C(=O)C2(CC(C)(C)C2)NC(=O)[C@@H]2C[C@H](C)CN2C(=O)[C@H](CCc2ccc(C(F)(F)F)c(OC)c2)NC(=O)CN(C)C(=O)[C@H](Cc2ccc(C)cc2)N2CC/C=C\C[C@@H](C2=O)N(C)C(=O)CN(C)C1=O [PP2425] | 9.64 | 7.29 | A (a compound having 10 or more and less than 20 is denoted as A) | AA (a compound having 20 or more is denoted as AA) | –
10 | CCCN1C(=O)CN(C)C(=O)CN(CC(F)F)C(=O)[C@H]([C@@H](C)CC)NC(=O)[C@H](CC(C)C)N(C)C(=O)C[C@@H](C(=O)N2CCOCC2)N(C)C(=O)[C@H](C2CCCC2)N(C)C(=O)C2(CCCC2)NC(=O)[C@@H]2CCCN2C(=O)[C@H](CCc2ccc(C(F)(F)F)c(Cl)c2)NC(=O)CN(C)C(=O)[C@@H]1Cc1ccc(C(F)(F)F)cc1 [PP0752] ([NMeL]I[X1][Sar][NPrPhe(4-CF3)][Sar][hPhe(3-Cl-4-CF3)]P[Ac5c][NMeGly(cPent)][NMeD]-Morpholide; lactam N-11) | – | 7.59 | – | – | HRAS/KRAS (ratio of KD value with respect to HRAS to KD value with respect to KRAS) [2, 6]: B (a compound having 3 or more and less than 10 is denoted as B); pKd [3, 11]: 9.27; NRAS/KRAS (ratio of KD value with respect to NRAS to KD value with respect to KRAS) [4, 7]: B (a compound having 3 or more and less than 10 is denoted as B)
11 | C=CCN1C(=O)CN(C)C(=O)CN(C)C(=O)[C@H]([C@@H](C)CC)NC(=O)[C@H](CC(C)C)N(C)C(=O)C[C@@H](C(=O)N2CCOCC2)N(C)C(=O)[C@H](C2CCCC2)N(C)C(=O)C2(CCCC2)NC(=O)[C@@H]2CCCN2C(=O)[C@H](CCc2ccc(C(F)(F)F)c(Cl)c2)NC(=O)CN(C)C(=O)[C@@H]1Cc1ccc(C(F)(F)F)cc1 [PP0128] ([NMeL]I[Sar][Sar][X5][Sar][hPhe(3-Cl-4-CF3)]P[Ac5c][NMeGly(cPent)][NMeD]-Morpholide; lactam N-11) | – | 7.98 | C (A compound having a KD ratio of 0.1 or more and less than 3 is denoted as C) | C (A compound having a KD ratio of 0.1 or more and less than 3 is denoted as C) | pKd [3, 11]: 9.60
12 | CCO[C@@H]1C[C@H]2C(=O)NC3(CC(C)(C)C3)C(=O)N(C)[C@@H](C(CC)CC)C(=O)N(C)[C@H](C(=O)N(C)C)CC(=O)N(C)[C@@H](C(C)C)C(=O)N[C@@H]([C@@H](C)CC)C(=O)N(C)CC(=O)N(C)[C@H]3C/C=C\CCN(C3=O)[C@@H](CC3CCC(F)(F)CC3)C(=O)N(C)CC(=O)N[C@@H](CCc3cc(F)c(C(F)(F)F)c(F)c3)C(=O)N2C1 [PP2481] | 8.80 | 7.47 | A (a compound having 10 or more and less than 20 is denoted as A) | A (a compound having 10 or more and less than 20 is denoted as A) | –

Reference: patent US20240158446A1, “CYCLIC COMPOUND HAVING SELECTIVE INHIBITORY ACTION ON KRAS OVER HRAS AND NRAS” (CHUGAI SEIYAKU KABUSHIKI KAISHA, priority 2021, published 2024)
